Key:
[1] = system: MRC5 (normal lung cell) cell line; test: MTT cytotoxicity assay, MRC5; type: cell-based; details: Homo sapiens, 48 h
Experimental: [The procedure below names another cell line; the source lists this cell line under the same test.] (§1) The cytotoxic activities of β-carboline-3-carboxylic acid derivatives were investigated by the MTT method, as previously described. Cells (1 × 10^4 cells per well) seeded into 96-well plates (JET, Guangzhou, China) were incubated with DMEM containing various concentrations (2.5, 5, 10, 20, 40, and 80 μM) of β-carbolines (4A, 4B, 4C, 4D, 6a-6f, 6g-6l, 6m-6r, and 6s-6x) for 48 h at 37 °C and 5% CO2. Then, 10 µL of 5 mg/mL MTT reagent dissolved in PBS (Phosphate buffered saline) was added per well, and plates were incubated at 37 °C for 4 h. The medium was carefully removed and 100 µL dimethyl sulfoxide (DMSO) was added to dissolve the formazan crystals. The absorbance was measured at 490 nm with a microplate reader (ThermoFisher Scientific Inc., Waltham, MA, USA). The β-carbolines were dissolved in DMSO as stock solutions (10 mM) at −20 °C, and diluted in the final experimental solution using DMEM before use. A549 (lung carcinoma), SGC-7901 (gastric carcinoma), Hela (cervical carcinoma), SMMC-7721 (liver carcinoma), and MCF-7 (breast carcinoma) cell lines were used for the antitumor activity screening. The IC50 values were the mean values of three independent experiments.

CT DNA = test: Thermal denaturation study with CT DNA; type: binding, calf; details: β-carboline/DNA ratio of 0.5, pH 7.4
Experimental: The DNA-binding modes of the β-carboline derivatives (4B, 6i, 4D, and 6u) with CT DNA were examined by DNA thermal denaturation experiments, as previously described. The solutions containing complexes of CT DNA and 4B, 6i, 4D, or 6u were heated using a thermostatic water bath, and the absorbance was measured in 1 °C steps from 30 °C to 95 °C at 260 nm (At) by a UV-Vis spectrophotometer (A is the absorbance of the solution at 260 nm at different temperatures, t is the temperature). The experiments were performed in PE buffer (pH = 7.4) with a β-carboline/DNA ratio of 0.5. The ΔTm value of DNA alone is 56.8 °C. ΔTm = ΔTm^(DNA + 4B, 6i, 4D, or 6u) − ΔTm^(DNA alone).
Figure 6 Thermal denaturation study of the complexes of β-carbolines (4B, 6i, 4D, and 6u) and CT-DNA. Melting temperatures were measured in PBS-EDTA buffer (1 mM Na2HPO4, 0.1 mM EDTA, PH 7.4) with a β-carboline (4B, 6i, 4D, and 6u)/DNA ratio of 0.5. ΔTm = (ΔTm^4B,6i,4D, or 6u + DNA − ΔTm^DNA).

[2] = system: A549 (lung carcinoma) cell line; test: MTT cytotoxicity assay, A549; type: cell-based; details: Homo sapiens, 48 h, mean of three independent experiments, read-out: IC50 (μM) Mean ± SD, A549
Experimental: All cell lines (A549, SGC-7901, Hela, SMMC-7721, and MCF-7) were purchased from the American Type Culture Collection (Manassas, VA, USA), and were cultured in Dulbecco’s modified Eagle’s medium (DMEM, HycloneLaboratories Inc., Logan, Utah, USA) supplemented with 10% fetal bovine serum (FBS, Gibco&Invitrogen, Carlsbad, CA, USA) at 37 °C and 5% CO2.
as §1

A549 cells [3] = test: Cell cycle assay, PI single staining, flow cytometry; type: cell-based; details: 48 h
Experimental: The cell cycle was determined by PI single staining. A549 cells (1 × 10^6 cells per well) seeded into 6-well plates (JET, Guangzhou, China) were incubated with DMEM containing various concentrations (2, 4, and 8 μM) of β-carbolines (4B, 6i, 4D, and 6u) for 48 h at 37 °C and 5% CO2. The cells were harvested, washed with pre-cooled PBS (4 °C), and fixed with pre-cooled 90% ethanol (4 °C). Then, the cells were incubated with 20 μL RNAse (30 μg/mL) and 20 μL PI (50 μg/mL) (Sigma Aldrich, Saint Louis, MO, USA) for 30 min at 37 °C. The samples were analyzed using flow cytometry (BD FACSCalibur, San Jose, CA, USA).
Figure 2 The cell cycle was detected by flow cytometry using PI single staining. A549 cells were treated with 4B, 6i, 4D, and 6u at 2, 4, and 8 μM for 48 h, and then stained with PI for 30 min at 37 °C. The proportions of cells containing different DNA content were analyzed by FCS Express 5.0 (De Novo Software, Thornhill, Canada).

A549 cells [4] = test: Hoechst 33342/PI dual staining, morphological observation of apoptosis; type: cell-based; details: A549, 48 h, 8 μM (Figure 1 legend; method says 4 μM)
Experimental: The morphological observation of apoptosis was performed by Hoechst 33342 and propidium iodide (PI) dual staining according to the manufacturer’s instructions. A549 cells (2 × 10^4 cells per well) seeded into 24-well plates (JET, Guangzhou, China) were incubated with DMEM containing 4 μM of β-carbolines (4B, 6i, 4D, and 6u) for 48 h at 37 °C and 5% CO2. Then, the cells were stained by Hoechst 33342 and PI at 37 °C for 30 min in dark conditions. Finally, cells were observed and photographed with a fluorescence microscope (LeicaDM6B, Leica, Nussloch, Germany).
Figure 1 Morphological observation was performed by Hoechst 33342/propidium iodide (PI) dual staining. A549 cells were treated with 4B, 6i, 4D, and 6u at 8 μM for 48 h, and then stained with Hoechst 33342 and PI at 37 °C in dark conditions. The stained cells were observed under a fluorescence microscope (Leica DM6B, Leica, Nussloch, Germany). Hoechst 33342 was used to stain the living and apoptotic nuclei, and emitted blue fluorescence (upper). PI was used to stain the dead nuclei and emitted red fluorescence (lower).

Compound: COC(=O)c1cc2c3ccccc3n(Cc3ccccc3F)c2cn1 [Compound 4D]
- IC50 [1]: 35.38 ± 0.01 µM
- ΔTm (CT DNA): 3.5 °C
- IC50 [2]: 13.94 ± 0.07 µM
- Percentage of Cell Cycles (%) G1 (A549 cells [3]; A549, 2 μM): 56.89%
- Percentage of Cell Cycles (%) G2/M (A549 cells [3]; A549, 2 μM): 18.94%
- Percentage of Cell Cycles (%) S (A549 cells [3]; A549, 2 μM): 24.17%
- Percentage of Cell Cycles (%) SubG1 (A549 cells [3]; A549, 2 μM): 6.41%
- Percentage of Cell Cycles (%) G1 (A549 cells [3]; A549, 4 μM): 47.21%
- Percentage of Cell Cycles (%) G2/M (A549 cells [3]; A549, 4 μM): 35.46%
- Percentage of Cell Cycles (%) S (A549 cells [3]; A549, 4 μM): 17.33%
- Percentage of Cell Cycles (%) SubG1 (A549 cells [3]; A549, 4 μM): 39.03%
- Percentage of Cell Cycles (%) G1 (A549 cells [3]; A549, 8 μM): 88.01%
- Percentage of Cell Cycles (%) G2/M (A549 cells [3]; A549, 8 μM): 0.3%
- Percentage of Cell Cycles (%) S (A549 cells [3]; A549, 8 μM): 11.69%
- Percentage of Cell Cycles (%) SubG1 (A549 cells [3]; A549, 8 μM): 46.29%
- Morphological observation of cell apoptosis (Hoechst 33342/PI) (A549 cells [4]): could induce cell apoptosis and further cell necrosis

Compound: O=C(OCCCCCOC(=O)c1cc2c3ccccc3n(Cc3ccccc3F)c2cn1)c1cc2c3ccccc3n(Cc3ccccc3F)c2cn1 [Compound 6u]
- IC50 [1]: 39.89 ± 0.05 µM
- ΔTm (CT DNA): 9.0 °C
- IC50 [2]: 5.61 ± 0.04 µM
- Percentage of Cell Cycles (%) G1 (A549 cells [3]; A549, 2 μM): 56.24%
- Percentage of Cell Cycles (%) G2/M (A549 cells [3]; A549, 2 μM): 19.97%
- Percentage of Cell Cycles (%) S (A549 cells [3]; A549, 2 μM): 23.79%
- Percentage of Cell Cycles (%) SubG1 (A549 cells [3]; A549, 2 μM): 6.84%
- Percentage of Cell Cycles (%) G1 (A549 cells [3]; A549, 4 μM): 47.06%
- Percentage of Cell Cycles (%) G2/M (A549 cells [3]; A549, 4 μM): 40.34%
- Percentage of Cell Cycles (%) S (A549 cells [3]; A549, 4 μM): 12.60%
- Percentage of Cell Cycles (%) SubG1 (A549 cells [3]; A549, 4 μM): 46.25%
- Percentage of Cell Cycles (%) G1 (A549 cells [3]; A549, 8 μM): 81.62%
- Percentage of Cell Cycles (%) G2/M (A549 cells [3]; A549, 8 μM): 18.30%
- Percentage of Cell Cycles (%) S (A549 cells [3]; A549, 8 μM): 0.08%
- Percentage of Cell Cycles (%) SubG1 (A549 cells [3]; A549, 8 μM): 44.92%
- Morphological observation of cell apoptosis (Hoechst 33342/PI) (A549 cells [4]): could induce cell apoptosis and further cell necrosis

Compound: Cc1ccccc1Cn1c2ccccc2c2cc(C(=O)OCCCCCOC(=O)c3cc4c5ccccc5n(Cc5ccccc5C)c4cn3)ncc21 [Compound 6i]
- IC50 [1]: 37.99 ± 0.1 µM
- ΔTm (CT DNA): 8.5 °C
- IC50 [2]: 6.93 ± 0.33 µM
- Percentage of Cell Cycles (%) G1 (A549 cells [3]; A549, 2 μM): 57.38%
- Percentage of Cell Cycles (%) G2/M (A549 cells [3]; A549, 2 μM): 10.54%
- Percentage of Cell Cycles (%) S (A549 cells [3]; A549, 2 μM): 32.08%
- Percentage of Cell Cycles (%) SubG1 (A549 cells [3]; A549, 2 μM): 6.86%
- Percentage of Cell Cycles (%) G1 (A549 cells [3]; A549, 4 μM): 45.19%
- Percentage of Cell Cycles (%) G2/M (A549 cells [3]; A549, 4 μM): 42.40%
- Percentage of Cell Cycles (%) S (A549 cells [3]; A549, 4 μM): 12.41%
- Percentage of Cell Cycles (%) SubG1 (A549 cells [3]; A549, 4 μM): 26.33%
- Percentage of Cell Cycles (%) G1 (A549 cells [3]; A549, 8 μM): 46.64%
- Percentage of Cell Cycles (%) G2/M (A549 cells [3]; A549, 8 μM): 0.06%
- Percentage of Cell Cycles (%) S (A549 cells [3]; A549, 8 μM): 53.30%
- Percentage of Cell Cycles (%) SubG1 (A549 cells [3]; A549, 8 μM): 21.32%
- Morphological observation of cell apoptosis (Hoechst 33342/PI) (A549 cells [4]): could induce cell apoptosis and further cell necrosis

Compound: COC(=O)c1cc2c3ccccc3n(Cc3ccccc3C)c2cn1 [Compound 4B]
- IC50 [1]: 51.78 ± 0.1 µM
- ΔTm (CT DNA): 7.5 °C
- IC50 [2]: 39.2 ± 1.18 µM
- Percentage of Cell Cycles (%) G1 (A549 cells [3]; A549, 2 μM): 59.38%
- Percentage of Cell Cycles (%) G2/M (A549 cells [3]; A549, 2 μM): 15.46%
- Percentage of Cell Cycles (%) S (A549 cells [3]; A549, 2 μM): 25.16%
- Percentage of Cell Cycles (%) SubG1 (A549 cells [3]; A549, 2 μM): 6.56%
- Percentage of Cell Cycles (%) G1 (A549 cells [3]; A549, 4 μM): 43.06%
- Percentage of Cell Cycles (%) G2/M (A549 cells [3]; A549, 4 μM): 46.96%
- Percentage of Cell Cycles (%) S (A549 cells [3]; A549, 4 μM): 9.98%
- Percentage of Cell Cycles (%) SubG1 (A549 cells [3]; A549, 4 μM): 10.49%
- Percentage of Cell Cycles (%) G1 (A549 cells [3]; A549, 8 μM): 52.09%
- Percentage of Cell Cycles (%) G2/M (A549 cells [3]; A549, 8 μM): 2.1%
- Percentage of Cell Cycles (%) S (A549 cells [3]; A549, 8 μM): 45.81%
- Percentage of Cell Cycles (%) SubG1 (A549 cells [3]; A549, 8 μM): 4.15%
- Morphological observation of cell apoptosis (Hoechst 33342/PI) (A549 cells [4]): could only induce cell apoptosis in a dose-dependent manner

Source: paper PMC6214108, “Synthesis and In Vitro Antitumor Activity of Novel Bivalent β-Carboline-3-carboxylic Acid Derivatives with DNA as a Potential Target” (International Journal of Molecular Sciences, 2018)
